Data: patent publication US9499550B2 (BRISTOL-MYERS SQUIBB COMPANY, priority 2012, dated 2016)
Like-named read-outs stand apart in the source and are kept apart here.

Assays:
[1] = test system: HCV genotype 1a (H77 strain) replicon in HUH-7 cells; test: HCV replicon luciferase reporter assay, genotype 1a; type: cell-based; settings: Hepatitis C virus, Huh-7, 72 h, 3 days incubation, read-out: LE_1a (EC50, range)
How it was run: (§1)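 Replicon inhibition for both genotypes was measured as Renilla luciferase signal (EnduRen, 7.5 μM final, 2 h) after 3-day, 37° C exposure of replicon-bearing HUH-7 cells in 4% FCS DMEM, 0.5% DMSO. The 1b construct carries S1179I; the 1a H77 construct carries P1496L and S2204I. Twenty-point, 3-fold dilutions were fitted four-parametrically for EC50, and CC50 was taken from multiplexed Cell Titer-Blue.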

[2] = test system: HCV genotype 1b (Con1) replicon in HUH-7 cells; test: HCV replicon luciferase reporter assay, genotype 1b; type: cell-based; settings: Hepatitis C virus, Huh-7, 72 h, 3 days incubation, read-out: LE_1b (EC50, range)
How it was run: as §1

[3] = HCV genotype 1a replicon luciferase
[4] = HCV genotype 1b replicon luciferase
[5] = HCV genotype 1a replicon luciferase assay, range class
[6] = HCV genotype 1b replicon luciferase assay, range class

Compound | EC50 [1, 3] [nM] | EC50 [2, 4] [nM] | EC50 [1, 5] [nM] | EC50 [2, 6] [nM] | further results
COc1cc2ccnc(O[C@@H]3C[C@H]4C(=O)N[C@]5(C(=O)NS(=O)(=O)C6(F)CC6)C[C@H]5/C=C\CC[C@@H](C)C[C@@H](C)[C@H](NC(=O)OC(C)(C)C)C(=O)N4C3)c2cc1Cl [Compound 4024, tert-butyl (2R,6S,7R,9R,13aS,14aR,16aS,Z)-2-(7-chloro-6-methoxyisoquinolin-1-yloxy)-14a-(1-fluorocyclopropylsulfonylcarbamoyl)-7,9-dimethyl-5,16-dioxo-1,2,3,5,6,7,8,9,10,11,13a,14,14a,15,16,16a-hexadecahydrocyclopropa[e]pyrrolo[1,2-a][1,4]diazacyclopentadecin-6-ylcarbamate] | < 5.46 | < 5.46 |  |  | 
COc1cnc(O[C@@H]2C[C@H]3C(=O)N[C@]4(C(=O)NS(=O)(=O)C5(CF)CC5)C[C@H]4/C=C\CC[C@@H](C)C[C@@H](C)[C@H](NC(=O)OC(C)(C)C(F)(F)F)C(=O)N3C2)c2ccccc12 [Compound 4155] |  |  |  |  | EC50 ([1]; GETYPE1A, HCV genotype 1a replicon luciferase): < 5.46 nM; EC50 ([2]; GETYPE1B, HCV genotype 1b replicon luciferase): < 5.46 nM
C[C@H]1CC/C=C\[C@@H]2C[C@@]2(C(=O)NS(=O)(=O)C2CC2)NC(=O)[C@@H]2C[C@@H](Oc3nc(OCC(F)F)cc4c(Cl)cccc34)CN2C(=O)[C@@H](NC(=O)OC(C)(C)C(F)(F)F)[C@H](C)C1 [Compound 1095, 1,1,1-trifluoro-2-methylpropan-2-yl((2R,6S,7R,9S,13aS,14aR,16aS,Z)-2-((5-chloro-3-(2,2-difluoroethoxyl)isoquinolin-1-yl)oxy)-14a-((cyclopropylsulfonyl)carbamoyl)-7,9-dimethyl-5,16-dioxo-1,2,3,5,6,7,8,9,10,11,13a,14,14a,15,16,16a-hexadecahydrocyclopropa[e]pyrrolo[1,2-a][1,4]diazacyclopentadecin-6-yl)carbamate] |  |  | 4.82 to 103 | < 5.46 | 
COc1ccc2nc(O[C@@H]3C[C@H]4C(=O)N[C@]5(C(=O)NS(=O)(=O)C6(CF)CC6)C[C@H]5/C=C\CC[C@@H](C)C[C@@H](C)[C@H](NC(=O)OC(C)(C)C)C(=O)N4C3)c(C)nc2c1 [Compound 4221, tert-butyl (2R,6S,7R,9R,13aS,14aR,16aS,Z)-14a-(1-(fluoromethyl)cyclopropylsulfonylcarbamoyl)-2-(6-methoxy-3-methylquinoxalin-2-yloxy)-7,9-dimethyl-5,16-dioxo-1,2,3,5,6,7,8,9,10,11,13a,14,14a,15,16,16a-hexadecahydrocyclopropa[e]pyrrolo[1,2-a][1,4]diazacyclopentadecin-6-ylcarbamate] | < 5.46 | < 5.46 |  |  | 
COc1ccc2c(O[C@@H]3C[C@H]4C(=O)N[C@]5(C(=O)NS(=O)(=O)C6CC6)C[C@H]5/C=C\CC[C@H](C)C[C@@H](C)[C@H](NC(=O)OC(C)(C)C)C(=O)N4C3)nc(-c3ccc(OC)c(Cl)c3)cc2c1 [Compound 3047, tert-butyl ((2R,6S,7R,9S,13aS,14aR,16aS,Z)-2-((3-(3-chloro-4-methoxyphenyl)-6-methoxyisoquinolin-1-yl)oxy)-14a-((cyclopropylsulfonyl)carbamoyl)-7,9-dimethyl-5,16-dioxo-1,2,3,5,6,7,8,9,10,11,13a,14,14a,15,16,16a-hexadecahydrocyclopropa[e]pyrrolo[1,2-a][1,4]diazacyclopentadecin-6-yl)carbamate] |  |  | 4.82 to 103 | < 5.46 | 
CCn1nc(O[C@@H]2C[C@H]3C(=O)N[C@]4(C(=O)NS(=O)(=O)C5CC5)C[C@H]4/C=C\CC[C@@H](C)C[C@@H](C)[C@H](NC(=O)NC(C)(C)C)C(=O)N3C2)c2ccccc2c1=O [Compound 5072, (2R,6S,7R,9R,13aS,14aR,16aS,Z)-6-(3-(tert-butyl)ureido)-N-(cyclopropylsulfonyl)-2-((3-ethyl-4-oxo-3,4-dihydrophthalazin-1-yl)oxy)-7,9-dimethyl-5,16-dioxo-1,2,3,5,6,7,8,9,10,11,13a,14,14a,15,16,16a-hexadecahydrocyclopropa[e]pyrrolo[1,2-a][1,4]diazacyclopentadecine-14a-carboxamide] | > 87.4 | 4.82 to 103 |  |  | 
COc1ccc2c(O[C@@H]3C[C@H]4C(=O)N[C@]5(C(=O)NS(=O)(=O)C6(C)CC6)C[C@H]5/C=C\CC[C@H](C)C[C@@H](C)[C@H](NC(=O)O[C@H](C)C(F)(F)F)C(=O)N4C3)nc(-c3ccc(OC(C)C)cc3)c(OC)c2c1 [Compound 5349, (R)-1,1,1-trifluoropropan-2-yl ((2R,6S,7R,9S,13aS,14aR,16aS,Z)-2-((3-(4-isopropoxyphenyl)-4,6-dimethoxyisoquinolin-1-yl)oxy)-7,9-dimethyl-14a-(((1-methylcyclopropyl)sulfonyl)carbamoyl)-5,16-dioxo-1,2,3,5,6,7,8,9,10,11,13a,14,14a,15,16,16a-hexadecahydrocyclopropa[e]pyrrolo[1,2-a][1,4]diazacyclopentadecin-6-yl)carbamate] | 4.82 to 103 | < 5.46 |  |  | 
COc1cnc(O[C@@H]2C[C@H]3C(=O)N[C@]4(C(=O)NS(=O)(=O)C5(CF)CC5)C[C@H]4/C=C\CC[C@@H](C)C[C@@H](C)[C@H](NC(=O)OC(C)(C)C)C(=O)N3C2)c2ccccc12 [Compound 4157, tert-butyl (2R,6S,7R,9R,13aS,14aR,16aS,Z)-14a-(1-(fluoromethyl)cyclopropylsulfonylcarbamoyl)-2-(4-methoxyisoquinolin-1-yloxy)-7,9-dimethyl-5,16-dioxo-1,2,3,5,6,7,8,9,10,11,13a,14,14a,15,16,16a-hexadecahydrocyclopropa[e]pyrrolo[1,2-a][1,4]diazacyclopentadecin-6-ylcarbamate] | < 5.46 | < 5.46 |  |  | 
COc1ccc2c(O[C@@H]3C[C@H]4C(=O)N[C@]5(C(=O)NS(=O)(=O)C6CC6)C[C@H]5/C=C\CC[C@H](C)C[C@@H](C)[C@H](NC(=O)O[C@@H]5C[C@@H]6C[C@@H]6C5)C(=O)N4C3)nccc2c1F [Compound 3151, (1R,3r,5S)-bicyclo[3.1.0]hexan-3-yl((2R,6S,7R,9S,13aS,14aR,16aS,Z)-14a-((cyclopropylsulfonyl)carbamoyl)-2-((5-fluoro-6-methoxyisoquinolin-1-yl)oxy)-7,9-dimethyl-5,16-dioxo-1,2,3,5,6,7,8,9,10,11,13a,14,14a,15,16,16a-hexadecahydrocyclopropa[e]pyrrolo[1,2-a][1,4]diazacyclopentadecin-6-yl)carbamate] |  |  | 4.82 to 103 | < 5.46 | 
COc1ccc2c(O[C@@H]3C[C@H]4C(=O)N[C@]5(C(=O)NS(=O)(=O)C6CC6)C[C@H]5/C=C\CC[C@@H](C)C[C@@H](C)[C@H](NC(=O)OC(C)(C)C)C(=O)N4C3)ncnc2c1 [Compound 4032, tert-butyl (2R,6S,7R,9R,13aS,14aR,16aS,Z)-14a-(cyclopropylsulfonylcarbamoyl)-2-(7-methoxyquinazolin-4-yloxy)-7,9-dimethyl-5,16-dioxo-1,2,3,5,6,7,8,9,10,11,13a,14,14a,15,16,16a-hexadecahydrocyclopropa[e]pyrrolo[1,2-a][1,4]diazacyclopentadecin-6-ylcarbamate] | < 5.46 | < 5.46 |  |  | 
[2H]C([2H])([2H])C(OC(=O)N[C@@H]1C(=O)N2C[C@H](Oc3ncc(OC)c4ccc(F)cc34)C[C@H]2C(=O)N[C@]2(C(=O)NS(=O)(=O)C3(C)CC3)C[C@H]2/C=C\CC[C@@H](C)C[C@H]1CC)(C([2H])([2H])[2H])C(F)(F)F [Compound 5453] | 1.01 to 5 | 0.51 to 1 |  |  | 
COc1ccc2c(O[C@@H]3C[C@H]4C(=O)N[C@]5(C(=O)NS(=O)(=O)C6(C)CC6)C[C@H]5/C=C\CC[C@H](C)C[C@@H](C)[C@H](NC(=O)OC(C)(C)C)C(=O)N4C3)nc(-c3ccc(OC(C)C)cc3)nc2c1 [Compound 3007, tert-butyl ((2R,6S,7R,9S,13aS,14aR,16aS,Z)-2-((2-(4-isopropoxyphenyl)-7-methoxyquinazolin-4-yl)oxy)-7,9-dimethyl-14a-(((1-methylcyclopropyl)sulfonyl)carbamoyl)-5,16-dioxo-1,2,3,5,6,7,8,9,10,11,13a,14,14a,15,16,16a-hexadecahydrocyclopropa[e]pyrrolo[1,2-a][1,4]diazacyclopentadecin-6-yl)carbamate] |  |  | < 5.46 | < 5.46 | 
CC[C@@H]1C[C@H](C)CC/C=C\[C@@H]2C[C@@]2(C(=O)NS(=O)(=O)C2(C)CC2)NC(=O)[C@@H]2C[C@@H](Oc3nc(OC)cc4cc(F)ccc34)CN2C(=O)[C@H]1NC(=O)OC(C)(C)C(C)(F)F [Compound 3216, 3,3-difluoro-2-methylbutan-2-yl((2R,6S,7R,9R,13aS,14aR,16aS,Z)-7-ethyl-2-((6-fluoro-3-methoxyisoquinolin-1-yl)oxy)-9-methyl-14a-(((1-methylcyclopropyl)sulfonyl)carbamoyl)-5,16-dioxo-1,2,3,5,6,7,8,9,10,11,13a,14,14a,15,16,16a-hexadecahydrocyclopropa[e]pyrrolo[1,2-a][1,4]diazacyclopentadecin-6-yl)carbamate] | 1.01 to 5 | 0.1 to 0.5 |  |  | 
